The source of these data is US9586921B2, “Burdock fruit extract containing arctigenin at high content and process for producing same” (Kracie Pharma, Ltd., priority 2009, dated 2017).

Experiment [1] relates to CAPAN-1. Put plainly: Cytotoxic evaluation using the cultured cell (WST-8 viability), CAPAN-1. Conditions: CAPAN-1, DMEM (normal nutritional condition) and NDM (nutrient starvation). The experiment is classed as cell-based, human. As to the method:
(§1) [Test 2] (Cytotoxic Evaluation Using the Cultured Cell)
(§2) The pancreas cancer cell line, CAPAN-1, PANC-1 and PSN-1 were plated to the 96 well plate, and they were pre-cultured in DMEM culture media in 37° C., 5% CO2 and 95% Air under normal nutritional condition for 24 hours. After washing these cells with PBS, the extracts which were extracted by the different methods in DMEM culture media (ending D in the graph) which is normal nutritional condition and in NDM culture media (ending I in the graph) which are a nutrient starvation condition (Example 2 and comparative example 2 in the graph) were added to each well including constant concentration of arctigenin, and incubated for 24 hours. The cells were washed in PBS again, 100 μL of DMEM culture media including 10% WST-8 was added to be reacted for two hours and measured the absorbance of 450 nm by the microplate reader, and viability of these cells were evaluated.
On the technique in general: Formazan colour is commonly taken as a measure of viable cells.

The test system of experiment [2] is PANC-1. Put plainly: Cytotoxic evaluation using the cultured cell (WST-8 viability), PANC-1. Type of experiment: cell-based. Conditions: PANC-1, DMEM (normal nutritional condition) and NDM (nutrient starvation). The procedure: as §1, §2
Experiment [3] has as its system PSN-1. Put plainly: Cytotoxic evaluation using the cultured cell (WST-8 viability), PSN-1. Type of experiment: cell-based, human. The conditions noted are these: PSN-1, DMEM (normal nutritional condition) and NDM (nutrient starvation). The procedure:
as §1, §2

Experiment [4] has as its system CAPAN-1 Xenografts. Put plainly: Evaluation of the anticancer activity in the model animal of tumor (CAPAN-1 Xenografts). The conditions noted are these: CAPAN-1 xenograft, 50 μg per mouse by mouth five times a week, one month after beginning of dosage, FIG. 5. Type of experiment: in vivo, nude mouse. The procedure:
(§3) [Test 3] (the Evaluation of the Anticancer Activity in the Model Animal of Tumor) (Method for Test) The subcutaneous dorsales of nude mouse (BALB-cAJ nu/nu; Nippon Kurea) which is the donor was inoculated the human pancreas cancer cell line, CAPAN-1 or PSN-1, and the obtained tumor mass of the donor mouse was transplanted into the subcutaneous dorsales of the recipient mouse to generate the model animal of tumor. […] The anticancer activity was evaluated by measuring the size of the tumor mass of subcutaneous dorsales sequentially.

For experiment [5], the system named is PSN-1 Xenografts. Put plainly: Evaluation of the anticancer activity in the model animal of tumor (PSN-1 Xenografts). Type of experiment: in vivo, nude mouse. Conditions: PSN-1 xenograft, 50 μg per mouse by mouth five times a week, one month after beginning of dosage, FIG. 6. The procedure:
as §3

Experiment [6] relates to pancreas cancer cell line PANC-1. Conditions: PANC-1, undernutrition condition; non-patent document 1; cited from earlier work.

As for `COc1ccc(C[C@H]2COC(=O)[C@@H]2Cc2ccc(O[C@@H]3O[C@H](CO)[C@@H](O)[C@H](O)[C@H]3O)c(OC)c2)cc1OC` [arctiin], the anticancer activity result in experiment [1], in experiment [2] and in experiment [3] was “in neither condition” throughout.
On to `COc1cc(C[C@H]2C(=O)OC[C@@H]2Cc2ccc(OC)c(OC)c2)ccc1O` [arctigenin], for which the “antitumor effect (size of the tumor mass)” value in experiment [4] and in experiment [5] was “antitumor effect was also obtained” in each case. Besides, in experiment [6], the “effect in screen for release of viability of tumor cells in the undernutrition condition” value is “effective”.
